Measured values published in patent US20240368127A1, “HSD17B13 INHIBITORS AND USES THEREOF” (FL2022-001, Inc., priority 2021, published 2024).
Counter-ions that a name gives are not always drawn.

Molecular target: T1, Recombinant human HSD17B13 enzyme (Homo sapiens, UniProt Q7Z5P4)
T1 sequence (Q7Z5P4 20-300): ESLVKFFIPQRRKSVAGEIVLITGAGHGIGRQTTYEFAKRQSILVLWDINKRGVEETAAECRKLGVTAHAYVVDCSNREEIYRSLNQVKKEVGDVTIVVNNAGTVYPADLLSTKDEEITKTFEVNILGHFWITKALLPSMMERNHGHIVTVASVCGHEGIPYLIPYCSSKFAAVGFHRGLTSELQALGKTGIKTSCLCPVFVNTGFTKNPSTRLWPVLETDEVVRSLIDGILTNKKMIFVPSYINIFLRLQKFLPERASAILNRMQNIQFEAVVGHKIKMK
Assay: HSD17b13 NAD(P)H-Glo biochemical assay
Conditions: 50 μM estradiol, 1 mM NAD+, 37° C. for 3 hours; read-out: HSD17β13 IC50
How it was run: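 Enzyme preincubated with inhibitor 20 min at RT in 20 mM Tris pH7.4, 0.002% Tween-20, 0.02% BSA, then reacted 3 h at 37° C with 50 μM estradiol and 1 mM NAD+ (final). NADH formation read by NAD(P)H-Glo luminescence after 1 h at RT.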

| SMILES | IC50 [nM] |
| --- | --- |
| Cn1nc(-c2cc(C(F)(F)F)c(F)c(O)c2F)c2cnc(N3CCN(C(=O)C(F)(F)F)CC3CC3CC3)nc21 (centres unmarked) [Compound 11.14, 1-(3-(Cyclopropylmethyl)-4-(3-(2,4-difluoro-3-hydroxy-5-(trifluoromethyl)phenyl)-1-methyl-1H-pyrazolo[3,4-d]pyrimidin-6-yl)piperazin-1-yl)-2,2,2-trifluoroethan-1-one] | ≤ 100 |
| Cn1nc(-c2cc(O)c(F)c(F)c2C#N)c2cnc(N3CCN(S(C)(=O)=O)C[C@H]3Cc3ccccc3)nc21 [Compound 11.15, (R)-6-(6-(2-Benzyl-4-(methylsulfonyl)piperazin-1-yl)-1-methyl-1H-pyrazolo[3,4-d]pyrimidin-3-yl)-2,3-difluoro-4-hydroxybenzonitrile] | ≤ 100 |
| Cn1nc(-c2c(C#N)cc(F)c(O)c2F)c2cnc(N3CCN(S(C)(=O)=O)C[C@H]3Cc3ccccc3)nc21 [Compound 11.16, 2-(6-((R)-2-Benzyl-4-(methylsulfonyl)piperazin-1-yl)-1-methyl-1H-pyrazolo[3,4-d]pyrimidin-3-yl)-3,5-difluoro-4-hydroxybenzonitrile] | ≤ 100 |
| C#Cc1cc(-c2nn(C)c3nc(N4CCN(S(C)(=O)=O)C[C@H]4Cc4ccccc4)ncc23)c(F)c(O)c1F [Compound 11.17, (R)-3-(6-(2-Benzyl-4-(methylsulfonyl)piperazin-1-yl)-1-methyl-1H-pyrazolo[3,4-d]pyrimidin-3-yl)-5-ethynyl-2,6-difluorophenol] | ≤ 100 |
| CC#Cc1cc(-c2nn(C)c3nc(N4CCN(S(C)(=O)=O)C[C@H]4Cc4ccccc4)ncc23)c(F)c(O)c1F [Compound 11.18, (R)-3-(6-(2-Benzyl-4-(methylsulfonyl)piperazin-1-yl)-1-methyl-1H-pyrazolo[3,4-d]pyrimidin-3-yl)-2,6-difluoro-5-(prop-1-yn-1-yl)phenol] | ≤ 100 |
| Cc1c(C(F)(F)F)cc(-c2nn(C)c3nc(N4CCN(S(C)(=O)=O)C[C@H]4Cc4ccccc4)ncc23)c(F)c1O [Compound 11.19, (R)-3-(6-(2-Benzyl-4-(methylsulfonyl)piperazin-1-yl)-1-methyl-1H-pyrazolo[3,4-d]pyrimidin-3-yl)-2-fluoro-6-methyl-5-(trifluoromethyl)phenol] | ≤ 100 |
| Cc1c(F)cc(-c2nn(C)c3nc(N4CCN(S(C)(=O)=O)C[C@H]4Cc4ccccc4)ncc23)c(F)c1O [Compound 11.20, (R)-3-(6-(2-Benzyl-4-(methylsulfonyl)piperazin-1-yl)-1-methyl-1H-pyrazolo[3,4-d]pyrimidin-3-yl)-2,5-difluoro-6-methylphenol] | ≤ 100 |
| CN(C)C(=O)N1CCN(c2ncc3c(-c4cc(C(F)(F)F)c(F)c(O)c4F)nn(C)c3n2)C(CC2CC2)C1 (centres unmarked) [Compound 11.21, 3-(Cyclopropylmethyl)-4-(3-(2,4-difluoro-3-hydroxy-5-(trifluoromethyl)phenyl)-1-methyl-1H-pyrazolo[3,4-d]pyrimidin-6-yl)-N,N-dimethylpiperazine-1-carboxamide] | ≤ 100 |
| CCn1nc(-c2cc(C(F)(F)F)c(F)c(O)c2F)c2cnc(N3CCN(S(C)(=O)=O)C[C@H]3Cc3ccccc3)nc21 [Compound 11.22, (R)-3-(6-(2-Benzyl-4-(methylsulfonyl)piperazin-1-yl)-1-ethyl-1H-pyrazolo[3,4-d]pyrimidin-3-yl)-2,6-difluoro-5-(trifluoromethyl)phenol] | ≤ 100 |
| COC(=O)[C@@H]1COCCN1c1ncc2c(-c3cc(C(F)(F)F)c(F)c(O)c3F)nn(C)c2n1 [Compound 11.23, Methyl (S)-4-(3-(2,4-difluoro-3-hydroxy-5-(trifluoromethyl)phenyl)-1-methyl-1H-pyrazolo[3,4-d]pyrimidin-6-yl)morpholine-3-carboxylate] | ≤ 100 |
| CC(C)NC(=O)[C@@H]1COCCN1c1ncc2c(-c3cc(C(F)(F)F)c(F)c(O)c3F)nn(C)c2n1 [Compound 11.24, (S)-4-(3-(2,4-Difluoro-3-hydroxy-5-(trifluoromethyl)phenyl)-1-methyl-1H-pyrazolo[3,4-d]pyrimidin-6-yl)-N-isopropylmorpholine-3-carboxamide] | ≤ 100 |
| Cn1nc(-c2cc(C(F)(F)F)c(F)c(O)c2F)c2cnc(N3CCOC[C@H]3C(=O)NC3CCCCC3)nc21 [Compound 11.25, (S)-N-Cyclohexyl-4-(3-(2,4-difluoro-3-hydroxy-5-(trifluoromethyl)phenyl)-1-methyl-1H-pyrazolo[3,4-d]pyrimdiin-6-yl)morpholine-3-carboxamide] | ≤ 100 |
| Cn1nc(-c2cc(C(F)(F)F)c(F)c(O)c2F)c2cnc(N3CCOC[C@H]3C(=O)N3CCCCC3)nc21 [Compound 11.26, (S)-(4-(3-(2,4-Difluoro-3-hydroxy-5-(trifluoromethyl)phenyl)-1-methyl-1H-pyrazolo[3,4-d]pyrimidin-6-yl)morpholin-3-yl)(piperidin-1-yl)methanone] | ≤ 100 |
| Cn1nc(-c2cc(C(F)(F)F)c(F)c(O)c2F)c2cnc(N3CCN(S(C)(=O)=O)CC3CC3CCC3)nc21 (centres unmarked) [Compound 11.27, 3-(6-(2-(Cyclobutylmethyl)-4-(methylsulfonyl)piperazin-1-yl)-1-methyl-1H-pyrazolo[3,4-d]pyrimidin-3-yl)-2,6-difluoro-5-(trifluoromethyl)phenol] | ≤ 100 |
| Cn1nc(-c2cc(C(F)(F)F)c(F)c(O)c2F)c2cnc(N3CCN(C(N)=O)CC3CC3CC3)nc21 (centres unmarked) [Compound 11.28, 3-(Cyclopropylmethyl)-4-(3-(2,4-difluoro-3-hydroxy-5-(trifluoromethyl)phenyl)-1-methyl-1H-pyrazolo[3,4-d]pyrimidin-6-yl)piperazine-1-carboxamide] | ≤ 100 |
| Cn1nc(-c2cc(C(F)(F)F)c(F)c(O)c2F)c2cnc(N3CCO[C@@H](Cc4ccccc4)C3)nc21 [Compound 12, (S)-3-(6-(2-Benzylmorpholino)-1-methyl-1H-pyrazolo[3,4-d]pyrimidin-3-yl)-2,6-difluoro-5-(trifluoromethyl)phenol] | ≤ 100 |
| Cc1ccc([C@@H](O)[C@H]2CN(c3ncc4c(-c5cc(C(F)(F)F)c(F)c(O)c5F)nn(C)c4n3)CCO2)cc1 [Compound 13, 2,6-Difluoro-3-(6-((R)-2-((R)-hydroxy(p-tolyl)methyl)morpholino)-1-methyl-1H-pyrazolo[3,4-d]pyrimidin-3-yl)-5-(trifluoromethyl)phenol] | ≤ 100 |
| Cn1nc(-c2cc(C(F)(F)F)c(F)c(O)c2F)c2cnc(C3CCCCN3Cc3ccccc3)nc21 (centres unmarked) [Compound 14, 3-(6-(1-Benzylpiperidin-2-yl)-1-methyl-1H-pyrazolo[3,4-d]pyrimidin-3-yl)-2,6-difluoro-5-(trifluoromethyl)phenol hydrochloride] | 100 to 1000 |

Other lines, results leading:

| IC50 [nM] | SMILES |
| --- | --- |
| ≤ 100 | Cn1nc(-c2cc(C(F)(F)F)c(F)c(O)c2F)c2cnc(N3CCO[C@@H](Cc4cccnc4)C3)nc21 [Compound 12.01, (S)-2,6-Difluoro-3-(1-methyl-6-(2-(pyridin-3-ylmethyl)morpholino)-1H-pyrazolo[3,4-d]pyrimidin-3-yl)-5-(trifluoromethyl)phenol] |
| ≤ 100 | Cn1nc(-c2cc(C(F)(F)F)c(F)c(O)c2F)c2cnc(N3CCO[C@@H](Cc4ccc(C#N)cc4)C3)nc21 [Compound 12.02, (S)-4-((4-(3-(2,4-Difluoro-3-hydroxy-5-(trifluoromethyl)phenyl)-1-methyl-1H-pyrazolo[3,4-d]pyrimidin-6-yl)morpholin-2-yl)methyl)benoznitrile] |
| ≤ 100 | Cn1nc(-c2cc(C(F)(F)F)c(F)c(O)c2F)c2cnc(N3CCO[C@@H](Cc4cccc(C#N)c4)C3)nc21 [Compound 12.03, (S)-3-((4-(3-(2,4-Difluoro-3-hydroxy-5-(trifluoromethyl)phenyl)-1-methyl-1H-pyrazolo[3,4-d]pyrimidin-6-yl)morpholin-2-yl)methyl)benzonitrile] |
| ≤ 100 | Cn1nc(-c2cc(C(F)(F)F)c(F)c(O)c2F)c2cnc(N3CCO[C@@H](Cc4ccc(C(N)=O)cc4)C3)nc21 [Compound 12.04, (S)-4-((4-(3-(2,4-Difluoro-3-hydroxy-5-(trifluoromethyl)phenyl)-1-methyl-1H-pyrazolo[3,4-d]pyrimidin-6-yl)morpholin-2-yl)methyl)benzamide] |
| ≤ 100 | Cn1nc(-c2cc(C(F)(F)F)c(F)c(O)c2F)c2cnc(N3CCO[C@@H](Cc4cccc(C(N)=O)c4)C3)nc21 [Compound 12.05, (S)-3-((4-(3-(2,4-Difluoro-3-hydroxy-5-(trifluoromethyl)phenyl)-1-methyl-1H-pyrazolo[3,4-d]pyrimidin-6-yl)morpholin-2-yl)methyl)benzamide] |
| ≤ 100 | Cn1nc(-c2cc(C(F)(F)F)c(F)c(O)c2F)c2cnc(N3CCO[C@@H](Cc4cccc(S(N)(=O)=O)c4)C3)nc21 [Compound 12.06, (S)-3-((4-(3-(2,4-Difluoro-3-hydroxy-5-(trifluoromethyl)phenyl)-1-methyl-1H-pyrazolo[3,4-d]pyrimidin-6-yl)morpholin-2-yl)methyl)benzenesulfonamide] |
| ≤ 100 | Cc1cccc(C[C@H]2CN(c3ncc4c(-c5cc(C(F)(F)F)c(F)c(O)c5F)nn(C)c4n3)CCO2)c1 [Compound 12.07, (S)-2,6-Difluoro-3-(1-methyl-6-(2-(3-methylbenzyl)morpholin)-1H-pyrazolo[3,4-d]pyrimidin-3-yl)-5-(trifluoromethyl)phenol] |
| ≤ 100 | Cn1nc(-c2cc(C(F)(F)F)c(F)c(O)c2F)c2cnc(N3CCO[C@@H](Cc4ccc(S(N)(=O)=O)cc4)C3)nc21 [Compound 12.08, (S)-4-((4-(3-(2,4-Difluoro-3-hydroxy-5-(trifluoromethyl)phenyl)-1-methyl-1H-pyrazolo[3,4-d]pyrimidin-6-yl)morpholin-2-y)methyl)benzenesulfonamide] |
